{
  "source": "patent US20170252383A1",
  "about": "“AGENT FOR PROMOTING GROWTH OF NONPATHOGENIC ORAL INDIGENOUS BACTERIA OR AGENT FOR IMPROVING ORAL BACTERIAL FLORA, AND COMPOSITION FOR ORAL USE” (HOKUTO CORPORATION, priority 2014, published 2017)",
  "test_in_all_cases": "Growth-promoting effects on normal bacteria in oral cavity (Experimental Example 2)",
  "type_in_all_cases": "cell-based",
  "conditions_in_all_cases": "powder 0.01% in distilled water (triclosan concentration not printed), aerobic 37° C., 12 hours, turbidity relative to control without sample",
  "key": {"[1]": {"tested_on": "Streptococcus gordonii ATCC 10558", "procedure": "(§1) Dry-ground mushroom powder suspensions obtained by dispersing the dry-ground powders of various mushrooms prepared as described above to a concentration of 0.01% in distilled water, and 4% aqueous solutions of the various mushroom extracts obtained as described above, were each added as samples in 100 μL portions to 96-well plates.\n(§2) Next, 100 μL of suspensions of the bacteria shown in Tables 1 and 2 were added to the dry-ground mushroom powder suspensions and mushroom extracts serving as these samples, and the bacteria were cultured aerobically at 37° C. for 12 hours. The bacterial suspensions used were prepared by pre-culturing the bacteria in a tryptic soy medium (TS medium; Becton and Dickinson), and inoculating the pre-cultured bacteria to a 2% concentration in a 2-fold concentration TS medium.\n(§3) Bacterial proliferation was measured, calculated and evaluated in the same way as in Experimental Example 1.\n(§4) The indigenous oral bacteria used in evaluation were of the following three species purchased from the ATCC.\nStreptococcus gordonii ATCC 10558 (S. gordonii)\n(§5) Prior to turbidity measurement, the culture fluids were stirred by shaking the plates."}, "[2]": {"tested_on": "Streptococcus mitis ATCC 47456", "procedure": "as §1, §2, §3, §4\nStreptococcus mitis ATCC 47456 (abbreviated below as S. mitis)\nas §5"}, "[3]": {"tested_on": "Streptococcus oralis ATCC 9811", "procedure": "as §1, §2, §3, §4\nStreptococcus oralis ATCC 9811 (abbreviated below as S. oralis)\nas §5"}},
  "data": [
    {"smiles": "Oc1cc(Cl)ccc1Oc1ccc(Cl)cc1Cl", "note": "[Triclosan, triclosan]", "values": [
      {"measurement": "Degree of bacterial growth due to dry-ground powders, S. gordonii", "setting": "[1]", "value": 0},
      {"measurement": "Degree of bacterial growth due to dry-ground powders, S. gordonii", "setting": "[1]; listed as triclosan", "value": "suppressed growth"},
      {"measurement": "Degree of bacterial growth due to dry-ground powders, S. mitis", "setting": "[2]", "value": 0},
      {"measurement": "Degree of bacterial growth due to dry-ground powders, S. mitis", "setting": "[2]; listed as triclosan", "value": "suppressed growth"},
      {"measurement": "Degree of bacterial growth due to dry-ground powders, S. oralis", "setting": "[3]", "value": 0},
      {"measurement": "Degree of bacterial growth due to dry-ground powders, S. oralis", "setting": "[3]; listed as triclosan", "value": "suppressed growth"}
    ]}
  ]
}
